Results taken from patent publication US20250325565A1, “ERAVACYCLINE FOR TREATING CANCER” (B. G. NEGEV TECHNOLOGIES AND APPLICATIONS LTD., priority 2022, published 2025).

Legend:
Format in all cases: cell-based, human
[1] = system: cleaved Poly (ADP-ribose) polymerase 1 (C-PARP1); experiment: Western blot of C-PARP1 in BxPC-3 cells; conditions: BxPC-3, 15 μM, 72 h
Method: Following the three-day incubation of BxPC-3 cells with medium alone as a control or medium containing different concentrations of eravacycline, gemcitabine, or doxorubicin, BxPC-3 cells were harvested and lysed. BxPC-3 cells were briefly lysed with a buffer containing 20 mM HEPES (pH 7.4), 150 mM NaCl, 1 mM EGTA, 1 mM EDTA, 10% glycerol, 1 mM MgCl2, 1% Triton X-100, and 10 μL of protease phosphatase inhibitors per 1 mL buffer. After incubation on ice for 45 min, the lysates were sonicated for 15 min (40% amplitude without pulses) and centrifuged at 12,000×g at 4° C., and the supernatants were collected. The supernatants were analyzed for protein concentration using the Bradford assay. Absorbance was recorded on a microplate reader at 595 nm (Bio-RadiMark Microplate Absorbance reader).
To evaluate the expression of cell apoptosis-related proteins, cleaved Poly (ADP-ribose) polymerase 1 (C-PARP1) was detected using western blot assays. Actin was used as a control. […] Membranes were incubated for 1 h at room temperature with anti-rabbit secondary antibodies (1:1,000, Sigma-Aldrich). β-actin levels were determined using anti-β-actin (1:10,000, Sigma-Aldrich). Immune complexes were detected with a chemiluminescence reagent (Thermo Fisher Scientific, Pierce ECL Plus Substrate), followed by exposure to Kodak X-ray film (Rochester, NY, USA). […]

BxPC-3 cells [2] = experiment: Annexin V-FITC/PI apoptosis assay by flow cytometry; conditions: 72 h
Method: Cells were cultured in 6-well plates containing different concentrations of eravacycline, gemcitabine, or doxorubicin (medium alone was used as a control) for 72 h. Afterward, cells were collected by trypsinization for flow cytometry analysis. Cells were resuspended in 100 μl binding buffer, then stained with 5 μl propidium iodide (PI) and 5 μl Annexin V-FITC (Annexin V-FITC Apoptosis Detection Kit with PI-BioLegend) at room temperature for 20 min in the dark. Finally, the cells were collected and analyzed by FACS (Sony SP6800 Spectral cell analyzer), and the data was analyzed using SP6800 spectral analyzer software.
To examine eravacycline's effect on cell growth inhibition and the mechanism underlying this, the induction of apoptosis activated by eravacycline treatment in BxPC-3 cells was investigated by performing an Annexin V-FITC (V-fluorescein isothiocyanate) apoptosis assay. The effects of the treatment of BxPC-3 cells with increasing concentrations of eravacycline was evaluated after 72 h. A positive control of 1 μM of doxorubicin was evaluated at the same time point.

p53 (mutated in BxPC-3) = experiment: Western blot of p53 protein expression in BxPC-3 cells; conditions: BxPC-3, 72 h, increasing concentrations
BxPC-3 cells [3] = experiment: Scratch wound healing (cell migration) assay; conditions: BxPC-3, 10 μM, 0, 24, 48 and 72 hours
Method: BxPC-3 cells were cultured in six well plates to full confluence; then the monolayer of the cells was scratched using a 200 μl pipette tip. Subsequently, PBS was used to wash and remove floating and damaged cells, and medium alone or medium containing 10 μM eravacycline was added to the cells for further culture. Cell migration over the denuded area was observed and captured at the indicated times with a Nikon ECLIPSE Ts2 fluorescence microscope, equipped with DS-Fi3 camera. The wound closure rates were also measured at the indicated time points.
As one of the most malignant types of digestive tract cancer cells, PDAC cells have powerful migration and invasiveness capabilities. Therefore, the effect of eravacycline on cell migration abilities was investigated.

[4] = system: Panc-1 scr, Panc-1 p53-R273H knock-out (KO) cell lines; experiment: XTT cell proliferation assay, Panc-1 cell lines; conditions: 72 h, 1-50 μM
Method: Human PDAC (AsPC-1, BxPC-3, Panc-1 scr, Panc-1 p53-R273H knock-out (KO) hTERT-HPNE), breast (MCF-7), lung (A549), and colon (HT-29) cancer cell lines were purchased from the American Type Culture Collection (ATCC). The MCF-7, A549, Panc-1 scr, Panc-1 p53 KO and HT-29 cell lines were grown in Dulbecco's Modified Eagle Medium (DMEM; Biological Industries, Beit HaEmek (BI), Israel), and the BxPC-3 and AsPC-1 cell lines were cultured in Roswell Park Memorial Institute-1640 (RPMI-1640; BI, Israel) medium. All media was supplemented with 10% fetal bovine serum (FBS), 200 μM L-glutamine (BI), and 1% penicillin-streptomycin (BI). Cells were cultured at 37° C. in a 5% CO2 humidified incubator.
The XTT Cell Proliferation Assay Kit was used to determine cell viability and proliferation. Cells were seeded in 96-well plates at a density of 4,000 cells per well and allowed to attach overnight in a 5% CO2 incubator at 37° C. After overnight incubation, cells were treated with culture medium or in a medium containing tigecycline, omadacycline, or eravacycline at different concentrations (1, 2, 5, 10, 25, and 50 μM) for the indicated time period. […] After shaking the plate gently to distribute the dye in the wells, the absorbance was measured with a spectrophotometer (Bio-RadiMark Microplate Absorbance reader) at a wavelength of 450 nm and a reference wavelength of 655 nm. […]

SMILES: CN(C)[C@@H]1C(O)=C(C(N)=O)C(=O)[C@@]2(O)C(O)=C3C(=O)c4c(O)c(NC(=O)CN5CCCC5)cc(F)c4C[C@H]3C[C@@H]12 [eravacycline, (4S,4aS,5aR,12aS)-4-(Dimethylamino)-7-fluoro-3,10,12,12a-tetrahydroxy-1,11-dioxo-9-[2-(pyrrolidin-1-yl)acetamido]-1,4,4a,5,5a,6,11,12a-octahydrotetracene-2-carboxamide]
- C-PARP1 expression vs control [1]: increased significantly
- increase in the number of apoptotic cells (BxPC-3 cells [2]; BxPC-3, 10 μM): three-fold
- apoptosis (BxPC-3 cells [2]; BxPC-3, 25 μM): ~70%
- p53 protein expression vs control (p53 (mutated in BxPC-3)): significantly reduced
- migration rate to wound vs control (BxPC-3 cells [3]): significantly lower migration rate
- effect on cell viability (in words) [4]: No significant effect
- effect on cell viability (in words) ([4]; listed as Eravacycline): no toxicity was observed
